From PMC12388801, “Identification of Bioactive Peptides from Caenorhabditis elegans Secretions That Promote Indole-3-Acetic Acid Production in Arthrobacter pascens ZZ21” (Microorganisms, 2025)
Read-outs that look alike come from different tables or passages of the source. Peptide text beside a SMILES is read from it.

Experiment: Solubility assessment of synthetic candidate peptides
Protocol: Candidate peptide sequences identified by LC-MS/MS were synthesized using GenScript Biotech (Nanjing, China). Peptide solubility was tested in various solvents to determine optimal conditions for functional assays. Initial screening was performed in 30 mL of inorganic salt medium with 200 mg/L L-tryptophan. A. pascens ZZ21 was inoculated at 1% (v/v), and peptides were tested at 1 ppm and 0.1 ppm. The peptides were dissolved according to their solubility profiles, with corresponding solvent controls: CK-A (1 ppm blank) and CK-B (0.1 ppm blank). Cultures were incubated at 30 °C, 250 rpm for 48 h, after which IAA levels in the supernatants were measured.
This analysis was conducted by Biotech Pack Scientific Co., Ltd. (Beijing, China).

[1] = synthetic peptide, N/A = lower than 0.1 mg/mL
[2] = synthetic peptide, ultrapure water, N/A = lower than 0.1 mg/mL

| SMILES | Solubilty in 0.1 M PBS [1] | Solubilty in ultrapure water [mg/mL] | Solubilty in DMSO [1] | Solubilty in ultrapure water [2] |
| --- | --- | --- | --- | --- |
| CC(C)C[C@H](NC(=O)[C@H](C)NC(=O)[C@H](CC(N)=O)NC(=O)CN)C(=O)N[C@@H](C)C(=O)N[C@H](C(=O)N[C@@H](CCCNC(=N)N)C(=O)O)[C@@H](C)O [Peptide P1] (H-GNALATR-OH) | N/A (N/A indicates solubility lower than 0.1 mg/mL) | – | – | – |
| CC(C)[C@H](NC(=O)[C@H](C)NC(=O)[C@@H](NC(=O)[C@H](C)NC(=O)[C@H](CO)NC(=O)CN)C(C)C)C(=O)NCC(=O)N[C@@H](CCCNC(=N)N)C(=O)O [Peptide P5] (H-GSAVAVGR-OH) | N/A (N/A indicates solubility lower than 0.1 mg/mL) | – | – | – |
| CC(C)[C@H](NC(=O)[C@H](CCC(=O)O)NC(=O)[C@H](C)NC(=O)[C@H](Cc1ccccc1)NC(=O)[C@H](CCC(=O)O)NC(=O)[C@H](C)N)C(=O)N[C@@H](CO)C(=O)N[C@@H](CCCCN)C(=O)O [Peptide P6] (H-AEFAEVSK-OH) | – | ≤ 5 | – | – |
| CC(C)C[C@H](NC(=O)CNC(=O)[C@H](CO)NC(=O)[C@@H](N)CC(=O)O)C(=O)N[C@H](C(=O)N[C@@H](CC(C)C)C(=O)N[C@@H](CCCCN)C(=O)O)C(C)C [Peptide P11] (H-DSGLVLK-OH) | N/A (N/A indicates solubility lower than 0.1 mg/mL) | – | N/A (N/A indicates solubility lower than 0.1 mg/mL) | – |
| CC(C)C[C@H](NC(=O)CNC(=O)[C@H](Cc1ccccc1)NC(=O)[C@H](C)NC(=O)[C@H](CC(C)C)NC(=O)[C@H](C)NC(=O)[C@H](CC(C)C)NC(=O)[C@@H](N)[C@@H](C)O)C(=O)N[C@H](C(=O)N[C@@H](C)C(=O)O)[C@@H](C)O [Peptide P12] (H-TLALAFGLTA-OH) | – | – | – | N/A (N/A indicates solubility lower than 0.1 mg/mL) |
| CC(C)C[C@H](NC(=O)[C@H](CCC(N)=O)NC(=O)[C@H](CC(C)C)NC(=O)[C@@H](NC(=O)[C@@H](N)CC(C)C)C(C)C)C(=O)N[C@@H](CC(=O)O)C(=O)N[C@@H](CC(N)=O)C(=O)N[C@@H](C)C(=O)N[C@@H](CCCCN)C(=O)O [Peptide P13] (H-LVLQLDNAK-OH) | N/A (N/A indicates solubility lower than 0.1 mg/mL) | – | – | N/A (N/A indicates solubility lower than 0.1 mg/mL) |
| CC(C)C[C@H](NC(=O)[C@H](CCC(=O)O)NC(=O)[C@H](Cc1ccc(O)cc1)NC(=O)[C@H](Cc1ccc(O)cc1)NC(=O)[C@@H](N)CC(C)C)C(=O)N[C@@H](C)C(=O)N[C@@H](CCCNC(=N)N)C(=O)O [Peptide P14] (H-LYYELAR-OH) | N/A (N/A indicates solubility lower than 0.1 mg/mL) | – | – | N/A (N/A indicates solubility lower than 0.1 mg/mL) |
| CC(C)C[C@H](NC(=O)[C@H](CO)NC(=O)[C@H](CC(C)C)NC(=O)[C@H](CC(=O)O)NC(=O)[C@H](CC(C)C)NC(=O)[C@@H](N)Cc1ccccc1)C(=O)N[C@@H](CCCCN)C(=O)O [Peptide P18] (H-FLDLSLK-OH) | N/A (N/A indicates solubility lower than 0.1 mg/mL) | – | – | N/A (N/A indicates solubility lower than 0.1 mg/mL) |
| CC(C)C[C@H](NC(=O)[C@H](CCC(N)=O)NC(=O)[C@@H]1CCCN1)C(=O)N[C@@H](CCC(=O)O)C(=O)N[C@H](C(=O)N[C@@H](CC(C)C)C(=O)N[C@H](C(=O)N1CCC[C@H]1C(=O)N[C@@H](CC(N)=O)C(=O)O)C(C)C)C(C)C [Peptide P20] (H-PQLEVLVPN-OH) | N/A (N/A indicates solubility lower than 0.1 mg/mL) | – | – | N/A (N/A indicates solubility lower than 0.1 mg/mL) |
| CC(C)C[C@H](NC(=O)[C@H](CCC(N)=O)NC(=O)[C@@H]1CCCN1)C(=O)N[C@@H](CCC(=O)O)C(=O)N[C@@H](CC(C)C)C(=O)N[C@H](C(=O)N[C@H](C(=O)N1CCC[C@H]1C(=O)N[C@@H](CC(N)=O)C(=O)O)C(C)C)C(C)C [Peptide P22] (H-PQLELVVPN-OH) | N/A (N/A indicates solubility lower than 0.1 mg/mL) | – | – | N/A (N/A indicates solubility lower than 0.1 mg/mL) |
| CC(C)C[C@H](NC(=O)CNC(=O)[C@H](CC(C)C)NC(=O)[C@H](C)NC(=O)[C@H](C)NC(=O)[C@H](CO)NC(=O)[C@H](C)NC(=O)[C@H](C)NC(=O)[C@H](CCC(N)=O)NC(=O)[C@H](CC(C)C)NC(=O)[C@@H](N)C(C)C)C(=O)O [Peptide P24] (H-VLQAASAALGL-OH) | N/A (N/A indicates solubility lower than 0.1 mg/mL) | – | – | N/A (N/A indicates solubility lower than 0.1 mg/mL) |
| CC(C)C[C@H](NC(=O)[C@H](Cc1ccccc1)NC(=O)[C@H](CC(=O)O)NC(=O)[C@@H](NC(=O)[C@H](CC(C)C)NC(=O)[C@@H](N)[C@@H](C)O)C(C)C)C(=O)N[C@@H](CCCNC(=N)N)C(=O)O [Peptide P25] (H-TLVDFLR-OH) | N/A (N/A indicates solubility lower than 0.1 mg/mL) | – | – | N/A (N/A indicates solubility lower than 0.1 mg/mL) |
| CC(C)C[C@H](NC(=O)[C@H](CC(=O)O)NC(=O)[C@@H](NC(=O)[C@@H](NC(=O)[C@@H](N)CC(C)C)[C@@H](C)O)C(C)C)C(=O)N[C@@H](Cc1ccccc1)C(=O)N[C@@H](CCCNC(=N)N)C(=O)O [Peptide P27] (H-LTVDLFR-OH) | N/A (N/A indicates solubility lower than 0.1 mg/mL) | – | – | N/A (N/A indicates solubility lower than 0.1 mg/mL) |
| CC(C)[C@H](N)C(=O)N[C@H](C(=O)N[C@@H](CC(=O)O)C(=O)N[C@H](C(=O)N[C@@H](CO)C(=O)N[C@@H](CCC(=O)O)C(=O)N[C@H](C(=O)N[C@@H](Cc1ccccc1)C(=O)N[C@@H](Cc1ccccc1)C(=O)N[C@@H](CCCCN)C(=O)O)C(C)C)C(C)C)[C@@H](C)O [Peptide P28] (H-VTDVSEVFFK-OH) | N/A (N/A indicates solubility lower than 0.1 mg/mL) | – | – | N/A (N/A indicates solubility lower than 0.1 mg/mL) |
| CC(C)C[C@H](NC(=O)[C@H](CC(C)C)NC(=O)[C@H](CC(N)=O)NC(=O)[C@@H](NC(=O)[C@H](CO)NC(=O)[C@@H](NC(=O)[C@@H]1CCCN1C(=O)[C@@H](N)CCC(=O)O)[C@@H](C)O)C(C)C)C(=O)N[C@@H](C)C(=O)N[C@@H](CCC(=O)O)C(=O)O [Peptide P29] (H-EPTSVNLLAE-OH) | N/A (N/A indicates solubility lower than 0.1 mg/mL) | – | – | N/A (N/A indicates solubility lower than 0.1 mg/mL) |
| CC(C)C[C@H](NC(=O)[C@H](C)NC(=O)[C@@H](NC(=O)CNC(=O)[C@@H](NC(=O)[C@H](CO)NC(=O)[C@@H](NC(=O)[C@@H]1CCCN1C(=O)[C@@H](N)CCC(=O)O)[C@@H](C)O)C(C)C)C(C)C)C(=O)N[C@@H](C)C(=O)N[C@@H](CCC(=O)O)C(=O)O [Peptide P30] (H-EPTSVGVALAE-OH) | – | – | N/A (N/A indicates solubility lower than 0.1 mg/mL) | N/A (N/A indicates solubility lower than 0.1 mg/mL) |
